# Bridge positions count the residues as written; N and C are the ends. Square brackets hold non-standard residues; d marks the D form. Peptide text beside a SMILES is read from it. Nle = CCCC[C@H](N)C(=O)O; βAla = NCCC(=O)O
# Experiment: RP-HPLC capacity factor
# Type: physicochemical
# Conditions: Grace Vydac C-18, 20 min gradient of 18–28% acetonitrile in 20 mM HCl, 1 mL/min
row,Compound,capacity factor (k′)
1,"CC(C)[C@H](NC(=O)[C@@H]1CCCN1C(=O)[C@H](CCCNC(=N)N)NC(=O)[C@H](CS)NC(=O)[C@H](Cc1c[nH]c2ccccc12)NC(=O)[C@H](CCCNC(=N)N)NC(=O)[C@@H](Cc1ccccc1)NC(=O)[C@H](Cc1c[nH]cn1)NC(=O)[C@H](CCC(=O)O)NC(=O)[C@H](CS)NC(=O)[C@H](CS)NC(=O)CCNC(=O)[C@@H]1CC(=O)N[C@@H](CCCNC(=N)N)C(=O)N[C@@H]([C@@H](C)O)C(=O)N[C@@H](CC(=O)O)C(=O)N[C@H](Cc2ccc(O)cc2)C(=O)N1)C(N)=O [peptide 2, RTD-β-Ala-(Arg^11)CCMSH] (RTD[dY]D[βAla]CCEH[dF]RWCRPV-NH2; lactam N-5)",0.98
2,"CC(C)[C@H](NC(=O)[C@@H]1CCCN1C(=O)[C@H](CCCNC(=N)N)NC(=O)[C@H](CS)NC(=O)[C@H](Cc1c[nH]c2ccccc12)NC(=O)[C@H](CCCNC(=N)N)NC(=O)[C@@H](Cc1ccccc1)NC(=O)[C@H](Cc1c[nH]cn1)NC(=O)[C@H](CCC(=O)O)NC(=O)[C@H](CS)NC(=O)[C@H](CS)NC(=O)CCNC(=O)[C@@H]1CC(=O)N[C@@H](CCCNC(=N)N)C(=O)N[C@@H](CO)C(=O)N[C@@H](CC(=O)O)C(=O)N[C@H](Cc2ccc(O)cc2)C(=O)N1)C(N)=O [peptide 1, RSD-β-Ala-(Arg^11)CCMSH] (RSD[dY]D[βAla]CCEH[dF]RWCRPV-NH2; lactam N-5)",1.35
3,"CC(C)[C@H](NC(=O)[C@@H]1CCCN1C(=O)[C@H](CCCNC(=N)N)NC(=O)[C@H](CS)NC(=O)[C@H](Cc1c[nH]c2ccccc12)NC(=O)[C@H](CCCNC(=N)N)NC(=O)[C@@H](Cc1ccccc1)NC(=O)[C@H](Cc1c[nH]cn1)NC(=O)[C@H](CCC(=O)O)NC(=O)[C@H](CS)NC(=O)[C@H](CS)NC(=O)CCNC(=O)[C@@H]1CC(=O)N[C@@H](CCCNC(=N)N)C(=O)N[C@@H](C(C)C)C(=O)N[C@@H](CC(=O)O)C(=O)N[C@H](Cc2ccc(O)cc2)C(=O)N1)C(N)=O [peptide 3, RVD-β-Ala-(Arg^11)CCMSH] (RVD[dY]D[βAla]CCEH[dF]RWCRPV-NH2; lactam N-5)",1.94

# Second part, the compound after the results:
row,capacity factor (k′),Compound
1,2.28,"CC(C)[C@H](NC(=O)[C@@H]1CCCN1C(=O)[C@H](CCCNC(=N)N)NC(=O)[C@H](CS)NC(=O)[C@H](Cc1c[nH]c2ccccc12)NC(=O)[C@H](CCCNC(=N)N)NC(=O)[C@@H](Cc1ccccc1)NC(=O)[C@H](Cc1c[nH]cn1)NC(=O)[C@H](CCC(=O)O)NC(=O)[C@H](CS)NC(=O)[C@H](CS)NC(=O)CCNC(=O)[C@@H]1CC(=O)N[C@@H](CCC(=O)O)C(=O)N[C@@H](C)C(=O)N[C@@H](CC(=O)O)C(=O)N[C@H](Cc2ccc(O)cc2)C(=O)N1)C(N)=O [peptide 6, EAD-β-Ala-(Arg^11)CCMSH] (EAD[dY]D[βAla]CCEH[dF]RWCRPV-NH2; lactam N-5)"
2,3.32,"CC(C)[C@H](NC(=O)[C@@H]1CCCN1C(=O)[C@H](CCCNC(=N)N)NC(=O)[C@H](CS)NC(=O)[C@H](Cc1c[nH]c2ccccc12)NC(=O)[C@H](CCCNC(=N)N)NC(=O)[C@@H](Cc1ccccc1)NC(=O)[C@H](Cc1c[nH]cn1)NC(=O)[C@H](CCC(=O)O)NC(=O)[C@H](CS)NC(=O)[C@H](CS)NC(=O)CCNC(=O)[C@@H]1CC(=O)N[C@@H](CCCNC(=N)N)C(=O)N[C@@H](C)C(=O)N[C@@H](CC(=O)O)C(=O)N[C@H](Cc2ccc(O)cc2)C(=O)N1)C(N)=O [peptide 4, RAD-β-Ala-(Arg^11)CCMSH] (RAD[dY]D[βAla]CCEH[dF]RWCRPV-NH2; lactam N-5)"
3,3.17,"CCCC[C@@H]1NC(=O)C[C@@H](C(=O)NCCC(=O)N[C@@H](CS)C(=O)N[C@@H](CS)C(=O)N[C@@H](CCC(=O)O)C(=O)N[C@@H](Cc2c[nH]cn2)C(=O)N[C@H](Cc2ccccc2)C(=O)N[C@@H](CCCNC(=N)N)C(=O)N[C@@H](Cc2c[nH]c3ccccc23)C(=O)N[C@@H](CS)C(=O)N[C@@H](CCCNC(=N)N)C(=O)N2CCC[C@H]2C(=O)N[C@H](C(N)=O)C(C)C)NC(=O)[C@@H](Cc2ccc(O)cc2)NC(=O)[C@H](CC(=O)O)NC(=O)[C@H](C)NC1=O [peptide 5, NAD-β-Ala-(Arg^11)CCMSH] ([Nle]AD[dY]D[βAla]CCEH[dF]RWCRPV-NH2; lactam N-5)"
